From patent US20090078651A1, “Mung Water Treatment Method” (ReNew Systems, Inc., priority 2007, published 2009)

What was measured:
[1] = system: bacteria colonies from mung water; assay: Most probable number plates of treated mung water samples (bacteria colony counts); format: cell-based; conditions: for colonies counted, Most Probable Number Plates: T = 24
Method: On 27 Sep. 2006 an experimental was conducted to compare the effects of treating mung water with DBNPA only to the effects of treating mung water with both DBNPA and Odor-Out®. The experiment was set-up in 250 ml baffled shake flasks with dispo plugs. The Odor Out® solutions used in this experiment were “aged”, having been prepared on 12 Sep. 2006 in tap water. The DBNPA solution was made up just prior to making additions to the flasks and was made using distilled water. After mung water samples and DBNPA and Odor Out® treatment additives were added, the flasks were placed in an incubation shaker set at 30 degrees C. and shaken at 100 rpm. The experiment was started at 2:30 p.m. on 27 Sep. 2006. The flasks were shaken for 2½ hours at which point the shaker was turned off and the flasks were allowed to incubate in a stationary position overnight. The next day, on 28 Sep. 2006 from 11 a.m.-2 p.m., serial dilutions were made up and most probable number plates were prepared. The plates were incubated overnight at 30 degrees C. On 29 Sep.

[2] = designed property; cited from earlier work

N#CC(Br)(Br)C(N)=O [DBNPA, 2.2-dibromo-3-nitrilopropionamide]
colonies counted, Most Probable Number Plates ([1]; Straight, DBNPA 0.05% 10 μl in 50 ml mung water, no Odor Out (1a)): TNC (the colonies on the plates were too numerous to count (>300)) | colonies counted, Most Probable Number Plates ([1]; dilution 10^−1, DBNPA 0.05% 10 μl in 50 ml mung water, no Odor Out (1a)): TNC (the colonies on the plates were too numerous to count (>300)) | colonies counted, Most Probable Number Plates ([1]; dilution 10^−2, DBNPA only (1a)): 5 | colonies counted, Most Probable Number Plates ([1]; dilution 10^−3, DBNPA only (1a)): 1 | colonies counted, Most Probable Number Plates ([1]; dilution 10^−4, DBNPA only (1a)): 0 | colonies counted, Most Probable Number Plates ([1]; dilution 10^−5, DBNPA only (1a)): 0 | colonies counted, Most Probable Number Plates ([1]; dilution 10^−6, DBNPA only (1a)): 0 | colonies counted, Most Probable Number Plates ([1]; dilution 10^−7, DBNPA only (1a)): 0 | bacteria colony counts, change ([1]; mung water samples treated only with DBNPA): moderate reductions | time to biodegrade after introduction into a recirculating water system [2]: ≤ 48 h
